ChEMBL document CHEMBL1811878, “Heteroatom-substituted analogues of orphan nuclear receptor small heterodimer partner ligand and apoptosis inducer (E)-4-[3-(1-Adamantyl)-4-hydroxyphenyl]-3-chlorocinnamic acid” (J Med Chem, 2011)
Values after ≈ are worked out from the molar mass of the structure shown. Active and inactive are the calls of the source. The calls are words filed in the database; no cut-off is given here.

Columns and labels:
[1] = target: T1, Retinoic acid receptor gamma (Homo sapiens) (UniProt P13631); assay: Transcriptional activation of human RARgamma at 1 uM by (TREpal)2-tk-CAT reporter gene assay
T1 sequence (whole entry): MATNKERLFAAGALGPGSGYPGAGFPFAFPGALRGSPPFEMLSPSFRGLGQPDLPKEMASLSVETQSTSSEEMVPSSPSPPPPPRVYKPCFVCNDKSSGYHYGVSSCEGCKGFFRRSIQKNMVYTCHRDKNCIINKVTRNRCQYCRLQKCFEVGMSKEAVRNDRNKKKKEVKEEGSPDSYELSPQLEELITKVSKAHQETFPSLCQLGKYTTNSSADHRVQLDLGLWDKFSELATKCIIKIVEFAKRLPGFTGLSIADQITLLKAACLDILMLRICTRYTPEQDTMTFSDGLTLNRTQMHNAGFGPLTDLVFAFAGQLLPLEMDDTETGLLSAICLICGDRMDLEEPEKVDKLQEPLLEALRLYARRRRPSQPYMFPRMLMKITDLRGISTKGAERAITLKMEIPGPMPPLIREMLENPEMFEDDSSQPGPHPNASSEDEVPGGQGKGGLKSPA

[2] = Induction of apoptosis in retinoid-resistant p53 null human HL60R cells assessed as DNA fragmentation at 0.1 uM after 24 hrs by acridine orange staining method; format: functional
[3] = target: T1, Retinoic acid receptor gamma (Homo sapiens); assay: Transcriptional activation of human RARgamma at 0.1 uM by luciferase reporter gene assay relative to control
[4] = target: T2, Retinoic acid receptor beta (Homo sapiens) (UniProt P10826); assay: Transcriptional activation of human RARbeta at 0.1 uM by luciferase reporter gene assay relative to control
T2 sequence (whole entry): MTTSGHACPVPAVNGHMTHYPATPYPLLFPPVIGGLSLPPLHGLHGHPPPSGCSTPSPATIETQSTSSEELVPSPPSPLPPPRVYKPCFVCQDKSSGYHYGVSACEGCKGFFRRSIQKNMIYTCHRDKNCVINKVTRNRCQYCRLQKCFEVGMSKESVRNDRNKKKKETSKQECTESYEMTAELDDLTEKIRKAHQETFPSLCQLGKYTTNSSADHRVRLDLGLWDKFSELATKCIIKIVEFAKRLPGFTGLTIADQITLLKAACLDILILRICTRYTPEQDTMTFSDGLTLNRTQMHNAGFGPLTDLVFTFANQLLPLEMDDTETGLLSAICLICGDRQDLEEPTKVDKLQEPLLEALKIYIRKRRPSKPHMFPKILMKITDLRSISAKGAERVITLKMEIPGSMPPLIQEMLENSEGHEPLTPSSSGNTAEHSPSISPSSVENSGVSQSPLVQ

[5] = target: T3, Retinoic acid receptor alpha (Homo sapiens) (UniProt P10276); assay: Transcriptional activation of human RARalpha at 0.1 uM by luciferase reporter gene assay relative to control
T3 sequence (whole entry): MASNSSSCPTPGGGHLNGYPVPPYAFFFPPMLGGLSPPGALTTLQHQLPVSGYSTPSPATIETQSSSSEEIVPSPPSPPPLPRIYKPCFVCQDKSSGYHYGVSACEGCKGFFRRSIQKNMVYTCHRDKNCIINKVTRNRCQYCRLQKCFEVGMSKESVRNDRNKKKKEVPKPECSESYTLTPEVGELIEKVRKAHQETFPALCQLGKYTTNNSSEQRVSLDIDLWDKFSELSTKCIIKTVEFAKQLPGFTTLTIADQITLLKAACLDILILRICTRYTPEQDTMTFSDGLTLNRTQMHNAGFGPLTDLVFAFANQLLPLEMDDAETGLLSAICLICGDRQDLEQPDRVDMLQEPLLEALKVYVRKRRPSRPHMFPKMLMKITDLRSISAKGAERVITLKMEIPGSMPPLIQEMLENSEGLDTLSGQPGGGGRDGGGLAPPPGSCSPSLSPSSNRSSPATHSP

[6] = target: T3, Retinoic acid receptor alpha (Homo sapiens); assay: Transcriptional activation of human RARalpha at 1 uM by (TREpal)2-tk-CAT reporter gene assay
[7] = Induction of apoptosis in retinoid-resistant p53 null human HL60R cells assessed as DNA fragmentation at 1 uM after 24 hrs by acridine orange staining method; format: functional
[8] = target: T2, Retinoic acid receptor beta (Homo sapiens); assay: Transcriptional activation of human RARbeta at 1 uM by (TREpal)2-tk-CAT reporter gene assay
OVCAR-3 = assay: Antiproliferative activity against human OVCAR3 cell; format: functional, cell-based
[9] = Aqueous solubility of the compound in water at pH 5 by UV spectrophotometric analysis; format: physicochemical
[10] = Aqueous solubility of the compound in PBS at pH 7.2 by UV spectrophotometric analysis; format: physicochemical
PC-3 [11] = assay: Induction of apoptosis in human PC3 cells assessed as decrease in ATP level at 5 uM after 72 hrs by luminescence assay; format: functional; set-up: scale not given: the % may be the effect or the level left
[12] = Induction of apoptosis in mouse MMTV-Wnt-1 cells assessed as cell viability after 72 hrs by DAPI staining based cell counting; format: functional
A549 [13] = assay: Induction of apoptosis in human A549 cells assessed as decrease in ATP level at 10 uM after 72 hrs by luminescence assay; format: functional, cell-based
HT-29 [14] = assay: Induction of apoptosis in human HT-29 cells assessed as decrease in ATP level after 72 hrs by luminescence assay; format: functional, cell-based
MDA-MB-231 [15] = assay: Induction of apoptosis in retinoid-resistant human MDA-MB-231 cells expressing p53 and ERbeta gene assessed as DNA fragmentation at 1 uM after 48 hrs by acridine orange staining method; format: functional
HT-29 [16] = assay: Induction of apoptosis in human HT-29 cells assessed as decrease in ATP level at 5 uM after 72 hrs by luminescence assay; format: functional; set-up: scale not given: the % may be the effect or the level left
KG-1 [17] = assay: Induction of apoptosis in human KG1 cells assessed as DNA fragmentation at 5 uM after 48 hrs by acridine orange staining method; format: functional
MDA-MB-231 [18] = assay: Growth inhibition of retinoid-resistant human MDA-MB-231 cells expressing p53 and ERbeta gene at 1 uM after 48 hrs by MTT assay; format: functional; details: MDA-MB-231, 48 h, read-out: GI
MDA-MB-231 [19] = assay: Induction of apoptosis in retinoid-resistant human MDA-MB-231 cells expressing p53 and ERbeta gene assessed as DNA fragmentation at 1 uM after 24 hrs by acridine orange staining method; format: functional
PC-3 [20] = assay: Induction of apoptosis in human PC3 cells assessed as decrease in ATP level after 72 hrs by luminescence assay; format: functional, cell-based
Mus musculus [21] = assay: Toxicity in ICR-SCIDS mouse assessed as increase in body weight at 20 mg/kg, iv qd administered at a 25% increment in dose each day for 7 days measured on day 1; format: organism-based; set-up: dose 20 mg/kg, route intravenous; details: in vivo, 168 h
MDA-MB-231 [22] = assay: Growth inhibition of retinoid-resistant human MDA-MB-231 cells expressing p53 and ERbeta gene at 1 uM after 24 hrs by MTT assay; format: functional; details: MDA-MB-231, 24 h, read-out: GI
HT-29 [23] = assay: Induction of apoptosis in human HT-29 cells assessed as decrease in ATP level at 10 uM after 72 hrs by luminescence assay relative to control; format: functional; set-up: scale not given: the % may be the effect or the level left
HT-29 [24] = assay: Induction of apoptosis in human HT-29 cells assessed as decrease in ATP level at 10 uM after 72 hrs by luminescence assay; format: functional; set-up: scale not given: the % may be the effect or the level left
Mus musculus [25] = assay: Toxicity in ICR-SCIDS mouse assessed as decrease in body weight at 20 mg/kg, iv qd administered at a 25% increment in dose each day for 7 days measured on day 8 relative to control; format: organism-based; set-up: dose 20 mg/kg, route intravenous; scale not given: the % may be the effect or the level left; details: in vivo, 168 h
A549 [26] = assay: Induction of apoptosis in human A549 cells assessed as decrease in ATP level after 72 hrs by luminescence assay; format: functional, cell-based
KG-1 [27] = assay: Growth inhibition in human KG1 cells expressing p53 gene at 5 uM after 48 hrs by MTT assay; format: functional; details: KG-1, 48 h, read-out: GI
MDA-MB-231 [28] = assay: Growth inhibition of retinoid-resistant human MDA-MB-231 cells expressing p53 and Erbeta gene at 0.1 to 1 uM after 48 hrs by MTT assay; format: functional, cell-based
KG-1 [29] = assay: Growth inhibition in human KG1 cells expressing p53 gene at 1 uM after 48 hrs by MTT assay; format: functional; details: KG-1, 48 h, read-out: GI
Mus musculus [30] = assay: Toxicity in ICR-SCIDS mouse assessed as increase in body weight at 20 mg/kg, iv qd administered at a 25% increment in dose each day for 7 days measured on day 4; format: organism-based; set-up: dose 20 mg/kg, route intravenous; details: in vivo, 168 h
A549 [31] = assay: Induction of apoptosis in human A549 cells assessed as decrease in ATP level at 5 uM after 72 hrs by luminescence assay; format: functional; set-up: scale not given: the % may be the effect or the level left
Mus musculus [32] = assay: Toxicity in ICR-SCIDS mouse assessed as decrease in body weight at 20 mg/kg, iv qd administered at a 25% increment in dose each day for 7 days measured on day 7 relative to body weight on day 1; format: organism-based; set-up: dose 20 mg/kg, route intravenous; scale not given: the % may be the effect or the level left; details: in vivo, 168 h
PC-3 [33] = assay: Induction of apoptosis in human PC3 cells assessed as decrease in ATP level at 10 uM after 72 hrs by luminescence assay; format: functional, cell-based
MDA-MB-231 [34] = assay: Induction of apoptosis in retinoid-resistant human MDA-MB-231 cells expressing p53 and Erbeta gene assessed as DNA fragmentation at 0.1 to 1 uM after 48 hrs by acridine orange staining method; format: functional, cell-based
KG-1 [35] = assay: Induction of apoptosis in human KG1 cells expressing p53 gene assessed as DNA fragmentation at 1 uM after 48 hrs by acridine orange staining method; format: functional
Mus musculus [36] = assay: Toxicity in ICR-SCIDS mouse harboring xenograft assessed as body weight loss at 20 mg/kg, iv qd administered alternate days for a total of 15 doses measured on day 9; format: organism-based; set-up: dose 20 mg/kg, route intravenous; details: in vivo
Mus musculus [37] = assay: Toxicity in ICR-SCIDS mouse harboring xenograft assessed as occurrence of diarrhea at 20 mg/kg, iv qd administered alternate days for a total of 15 doses measured on day 9; format: organism-based; set-up: dose 20 mg/kg, route intravenous; details: in vivo
Mus musculus [38] = assay: Toxicity in ICR-SCIDS mouse harboring xenograft assessed as decreased physical activity at 20 mg/kg, iv qd administered alternate days for a total of 15 doses measured on day 9; format: organism-based; set-up: dose 20 mg/kg, route intravenous; details: in vivo
Mus musculus [39] = assay: Toxicity in ICR-SCIDS mouse harboring xenograft assessed as occurrence of scruffy coat at 20 mg/kg, iv qd administered alternate days for a total of 15 doses measured on day 9; format: organism-based; set-up: dose 20 mg/kg, route intravenous; details: in vivo
Mus musculus [40] = assay: Toxicity in ICR-SCIDS mouse harboring xenograft assessed as exhibiting symptoms of dehydration at 20 mg/kg, iv qd administered alternate days for a total of 15 doses measured on day 9; format: organism-based; set-up: dose 20 mg/kg, route intravenous; details: in vivo

Activity [1] [%]	fold change (FC) [3]	fold change (FC) [4]	fold change (FC) [5]	Activity [6] [%]	Activity [8] [%]	Structure (SMILES)	Activity [2] [%]	Activity [7] [%]	Activity (PC-3 [11]) [%]	IC50 [12] [µM]	Activity (A549 [13])	Activity (HT-29 [14])	Activity (HT-29 [16]) [%]	Activity (KG-1 [17]) [%]	Activity (PC-3 [20])	Activity (Mus musculus [21]) [%]	Activity (HT-29 [24])	Activity (Mus musculus [25]) [%]	Activity (A549 [26])	inhibition of growth at 5 µM (KG-1 [27]) [%]	further results
103	25	6	6	8	85	O=C(O)/C=C/c1ccc(-c2ccc(O)c(C34CC5CC(CC(C5)C3)C4)c2)cc1 [ADAROTENE]	90	98													
88	50	20	10	21	78	O=C(O)c1ccc2cc(-c3ccc(O)c(C45CC6CC(CC(C6)C4)C5)c3)ccc2c1 [O-DEMETHYLATED ADAPALENE]	73	98													IC50 (OVCAR-3): 0.13 µM
						O=C(O)/C=C/c1ccc(-c2ccc(O)c(C34CC5CC(CC(C5)C3)C4)c2)c(Cl)c1	51	94	30	0.281	Active	Dose-dependent effect	30	55	Dose-dependent effect	9.3	>=40%	62.7	Dose-dependent effect	67	solubility [9]: 4.5 µM (≈ 1.84 µg/mL); solubility ([10]; buffer): soluble; Activity (MDA-MB-231 [15]): 7%; inhibition of growth at 1 µM (MDA-MB-231 [18]): 43%; Activity (MDA-MB-231 [19]): 3%; inhibition of growth at 1 µM (MDA-MB-231 [22]): 8%; Activity (HT-29 [23]): <60%; growth inhibition (GI) (MDA-MB-231 [28]): inactive; inhibition of growth at 1 µM (KG-1 [29]): 44%; Activity (Mus musculus [30]): 9.3%; Activity (A549 [31]): 30%; Activity (Mus musculus [32]): 90.4%; Activity (PC-3 [33]): Active; Activity (MDA-MB-231 [34]): inactive; Activity (KG-1 [35]): 30%
						O=C(O)/C=C/c1cnc(-c2ccc(O)c(C34CC5CC(CC(C5)C3)C4)c2)nc1			35	0.06	Active	Dose-dependent effect	15	50	Dose-dependent effect	5.7	inactive	100	Dose-dependent effect	100	Activity (Mus musculus [36]): Non-toxic; solubility ([10]; PBS, read-out: solubility): 0.44 µM (≈ 0.166 µg/mL); Activity (Mus musculus [37]): Non-toxic; inhibition of growth at 1 µM (KG-1 [29]): 100%; Activity (Mus musculus [30]): 5.7%; Activity (A549 [31]): 35%; Activity (Mus musculus [38]): Non-toxic; Activity (Mus musculus [39]): Non-toxic; Activity (Mus musculus [32]): 100.9%; Activity (PC-3 [33]): Active; Activity (KG-1 [35]): 40%; Activity (Mus musculus [40]): Non-toxic
